From article PMC5513037, “Examining the influence of specificity ligands and ATP-competitive ligands on the overall effectiveness of bivalent kinase inhibitors” (Proteome Science, 2017)

Tests used:
Experiment in all cases: KAM-matrix competition in K562 lysate;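 as to 0.001 uM KAM: median log10 fold change of treatment over DMSO control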;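 as to 0.01 uM KAM: median log10 fold change of treatment over DMSO control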;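 as to 0.1 uM KAM: median log10 fold change of treatment over DMSO control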;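 as to 1 uM KAM: median log10 fold change of treatment over DMSO control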;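 as to 10 uM KAM: median log10 fold change of treatment over DMSO control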
Type in all cases: binding
HIPK3 = molecular target: T1, HIPK3 (Homo sapiens, UniProt Q9H422);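 as to 0.001 uM KAM: median log10 fold change of treatment over DMSO control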;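 as to 0.01 uM KAM: median log10 fold change of treatment over DMSO control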;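 as to 0.1 uM KAM: median log10 fold change of treatment over DMSO control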;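 as to 1 uM KAM: median log10 fold change of treatment over DMSO control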;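 as to 10 uM KAM: median log10 fold change of treatment over DMSO control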
T1 construct: endogenous in cells; host or cells: K562 cells (combined S0.8 and P0.8 lysate)
T1 sequence (Q9H422 whole entry): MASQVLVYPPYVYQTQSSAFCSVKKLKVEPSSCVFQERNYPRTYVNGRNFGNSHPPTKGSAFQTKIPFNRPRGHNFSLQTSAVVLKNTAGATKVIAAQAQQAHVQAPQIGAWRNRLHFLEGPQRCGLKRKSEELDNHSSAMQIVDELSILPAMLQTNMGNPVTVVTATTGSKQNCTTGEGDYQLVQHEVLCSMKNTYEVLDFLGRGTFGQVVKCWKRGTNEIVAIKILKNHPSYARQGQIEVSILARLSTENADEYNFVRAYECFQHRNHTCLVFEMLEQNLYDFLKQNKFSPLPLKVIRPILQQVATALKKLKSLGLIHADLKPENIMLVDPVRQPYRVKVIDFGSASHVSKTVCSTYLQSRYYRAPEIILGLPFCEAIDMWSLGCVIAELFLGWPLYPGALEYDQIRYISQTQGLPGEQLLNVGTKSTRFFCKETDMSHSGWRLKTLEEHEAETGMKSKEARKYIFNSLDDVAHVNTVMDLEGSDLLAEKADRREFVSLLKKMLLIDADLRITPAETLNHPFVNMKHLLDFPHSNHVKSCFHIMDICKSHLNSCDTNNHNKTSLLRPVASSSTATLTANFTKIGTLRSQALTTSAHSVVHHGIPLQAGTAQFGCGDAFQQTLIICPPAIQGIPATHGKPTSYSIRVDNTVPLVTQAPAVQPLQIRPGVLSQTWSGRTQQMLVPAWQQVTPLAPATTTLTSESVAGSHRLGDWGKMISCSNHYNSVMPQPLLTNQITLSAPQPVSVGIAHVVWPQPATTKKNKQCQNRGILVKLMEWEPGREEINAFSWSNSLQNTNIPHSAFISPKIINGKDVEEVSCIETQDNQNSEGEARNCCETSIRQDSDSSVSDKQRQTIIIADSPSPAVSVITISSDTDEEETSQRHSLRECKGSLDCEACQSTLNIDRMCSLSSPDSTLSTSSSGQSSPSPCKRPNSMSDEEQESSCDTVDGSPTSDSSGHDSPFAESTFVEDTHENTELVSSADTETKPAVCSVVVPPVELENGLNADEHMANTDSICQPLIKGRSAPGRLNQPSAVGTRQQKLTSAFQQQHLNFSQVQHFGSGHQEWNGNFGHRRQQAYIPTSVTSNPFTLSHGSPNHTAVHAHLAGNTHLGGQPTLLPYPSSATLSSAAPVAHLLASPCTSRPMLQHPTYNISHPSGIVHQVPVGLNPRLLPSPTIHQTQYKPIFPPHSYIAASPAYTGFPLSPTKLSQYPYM
Description: (§1) Supplement 12953_2017_125_MOESM1_ESM.zip/MS_Supp Info.xlsx, sheet "KAM" | column: 10 uM KAM; 1 uM KAM; 0.1 uM KAM; 0.01 uM KAM; 0.001 uM KAM; RB50

CAMKK2 = molecular target: T2, CAMKK2 (Homo sapiens, UniProt Q96RR4)
T2 construct: endogenous in cells; host or cells: K562
T2 sequence (Q96RR4 whole entry): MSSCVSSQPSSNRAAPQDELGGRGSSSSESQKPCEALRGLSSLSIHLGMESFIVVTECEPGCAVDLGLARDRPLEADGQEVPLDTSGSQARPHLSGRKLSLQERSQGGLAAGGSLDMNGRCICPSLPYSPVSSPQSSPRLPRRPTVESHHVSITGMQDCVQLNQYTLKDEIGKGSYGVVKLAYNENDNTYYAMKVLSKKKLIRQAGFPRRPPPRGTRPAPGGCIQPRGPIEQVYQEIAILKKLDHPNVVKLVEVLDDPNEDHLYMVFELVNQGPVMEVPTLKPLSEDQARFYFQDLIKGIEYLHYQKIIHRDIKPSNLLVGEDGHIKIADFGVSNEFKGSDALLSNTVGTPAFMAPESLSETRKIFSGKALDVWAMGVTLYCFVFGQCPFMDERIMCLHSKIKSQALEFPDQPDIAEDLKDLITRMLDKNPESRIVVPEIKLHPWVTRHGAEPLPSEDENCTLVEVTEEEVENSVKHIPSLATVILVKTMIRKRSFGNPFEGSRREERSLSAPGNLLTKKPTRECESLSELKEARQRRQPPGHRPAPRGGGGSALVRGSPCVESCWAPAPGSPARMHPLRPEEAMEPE
Description: as §1

HUNK = molecular target: T3, HUNK (Homo sapiens, UniProt P57058);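 as to 0.001 uM KAM: median log10 fold change of treatment over DMSO control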;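 as to 0.01 uM KAM: median log10 fold change of treatment over DMSO control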;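 as to 0.1 uM KAM: median log10 fold change of treatment over DMSO control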;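 as to 1 uM KAM: median log10 fold change of treatment over DMSO control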;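 as to 10 uM KAM: median log10 fold change of treatment over DMSO control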
T3 construct: endogenous in cells; host or cells: K562
T3 sequence (P57058 1-714): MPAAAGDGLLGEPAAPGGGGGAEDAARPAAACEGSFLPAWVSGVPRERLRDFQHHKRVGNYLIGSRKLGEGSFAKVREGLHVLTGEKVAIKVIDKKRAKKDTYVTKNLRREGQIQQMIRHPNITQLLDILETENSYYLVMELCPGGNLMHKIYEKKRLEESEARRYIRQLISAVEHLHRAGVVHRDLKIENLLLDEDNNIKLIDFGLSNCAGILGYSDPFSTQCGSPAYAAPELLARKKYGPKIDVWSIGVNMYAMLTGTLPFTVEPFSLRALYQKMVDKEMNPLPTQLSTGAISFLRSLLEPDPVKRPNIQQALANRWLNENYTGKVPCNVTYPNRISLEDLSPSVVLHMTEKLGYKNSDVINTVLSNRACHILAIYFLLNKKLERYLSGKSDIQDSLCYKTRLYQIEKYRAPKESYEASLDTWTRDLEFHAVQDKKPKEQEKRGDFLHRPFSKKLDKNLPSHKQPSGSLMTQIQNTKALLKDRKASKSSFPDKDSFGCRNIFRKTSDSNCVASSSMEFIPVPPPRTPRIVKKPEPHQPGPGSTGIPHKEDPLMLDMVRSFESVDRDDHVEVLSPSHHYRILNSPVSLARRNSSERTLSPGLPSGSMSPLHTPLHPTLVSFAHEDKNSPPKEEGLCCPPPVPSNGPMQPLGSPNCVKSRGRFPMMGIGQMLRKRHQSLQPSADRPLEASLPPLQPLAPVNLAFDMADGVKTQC
Description: as §1

MAST4 = molecular target: T4, MAST4 (Homo sapiens, UniProt O15021)
T4 construct: endogenous in cells; host or cells: K562
T4 sequence (O15021 whole entry): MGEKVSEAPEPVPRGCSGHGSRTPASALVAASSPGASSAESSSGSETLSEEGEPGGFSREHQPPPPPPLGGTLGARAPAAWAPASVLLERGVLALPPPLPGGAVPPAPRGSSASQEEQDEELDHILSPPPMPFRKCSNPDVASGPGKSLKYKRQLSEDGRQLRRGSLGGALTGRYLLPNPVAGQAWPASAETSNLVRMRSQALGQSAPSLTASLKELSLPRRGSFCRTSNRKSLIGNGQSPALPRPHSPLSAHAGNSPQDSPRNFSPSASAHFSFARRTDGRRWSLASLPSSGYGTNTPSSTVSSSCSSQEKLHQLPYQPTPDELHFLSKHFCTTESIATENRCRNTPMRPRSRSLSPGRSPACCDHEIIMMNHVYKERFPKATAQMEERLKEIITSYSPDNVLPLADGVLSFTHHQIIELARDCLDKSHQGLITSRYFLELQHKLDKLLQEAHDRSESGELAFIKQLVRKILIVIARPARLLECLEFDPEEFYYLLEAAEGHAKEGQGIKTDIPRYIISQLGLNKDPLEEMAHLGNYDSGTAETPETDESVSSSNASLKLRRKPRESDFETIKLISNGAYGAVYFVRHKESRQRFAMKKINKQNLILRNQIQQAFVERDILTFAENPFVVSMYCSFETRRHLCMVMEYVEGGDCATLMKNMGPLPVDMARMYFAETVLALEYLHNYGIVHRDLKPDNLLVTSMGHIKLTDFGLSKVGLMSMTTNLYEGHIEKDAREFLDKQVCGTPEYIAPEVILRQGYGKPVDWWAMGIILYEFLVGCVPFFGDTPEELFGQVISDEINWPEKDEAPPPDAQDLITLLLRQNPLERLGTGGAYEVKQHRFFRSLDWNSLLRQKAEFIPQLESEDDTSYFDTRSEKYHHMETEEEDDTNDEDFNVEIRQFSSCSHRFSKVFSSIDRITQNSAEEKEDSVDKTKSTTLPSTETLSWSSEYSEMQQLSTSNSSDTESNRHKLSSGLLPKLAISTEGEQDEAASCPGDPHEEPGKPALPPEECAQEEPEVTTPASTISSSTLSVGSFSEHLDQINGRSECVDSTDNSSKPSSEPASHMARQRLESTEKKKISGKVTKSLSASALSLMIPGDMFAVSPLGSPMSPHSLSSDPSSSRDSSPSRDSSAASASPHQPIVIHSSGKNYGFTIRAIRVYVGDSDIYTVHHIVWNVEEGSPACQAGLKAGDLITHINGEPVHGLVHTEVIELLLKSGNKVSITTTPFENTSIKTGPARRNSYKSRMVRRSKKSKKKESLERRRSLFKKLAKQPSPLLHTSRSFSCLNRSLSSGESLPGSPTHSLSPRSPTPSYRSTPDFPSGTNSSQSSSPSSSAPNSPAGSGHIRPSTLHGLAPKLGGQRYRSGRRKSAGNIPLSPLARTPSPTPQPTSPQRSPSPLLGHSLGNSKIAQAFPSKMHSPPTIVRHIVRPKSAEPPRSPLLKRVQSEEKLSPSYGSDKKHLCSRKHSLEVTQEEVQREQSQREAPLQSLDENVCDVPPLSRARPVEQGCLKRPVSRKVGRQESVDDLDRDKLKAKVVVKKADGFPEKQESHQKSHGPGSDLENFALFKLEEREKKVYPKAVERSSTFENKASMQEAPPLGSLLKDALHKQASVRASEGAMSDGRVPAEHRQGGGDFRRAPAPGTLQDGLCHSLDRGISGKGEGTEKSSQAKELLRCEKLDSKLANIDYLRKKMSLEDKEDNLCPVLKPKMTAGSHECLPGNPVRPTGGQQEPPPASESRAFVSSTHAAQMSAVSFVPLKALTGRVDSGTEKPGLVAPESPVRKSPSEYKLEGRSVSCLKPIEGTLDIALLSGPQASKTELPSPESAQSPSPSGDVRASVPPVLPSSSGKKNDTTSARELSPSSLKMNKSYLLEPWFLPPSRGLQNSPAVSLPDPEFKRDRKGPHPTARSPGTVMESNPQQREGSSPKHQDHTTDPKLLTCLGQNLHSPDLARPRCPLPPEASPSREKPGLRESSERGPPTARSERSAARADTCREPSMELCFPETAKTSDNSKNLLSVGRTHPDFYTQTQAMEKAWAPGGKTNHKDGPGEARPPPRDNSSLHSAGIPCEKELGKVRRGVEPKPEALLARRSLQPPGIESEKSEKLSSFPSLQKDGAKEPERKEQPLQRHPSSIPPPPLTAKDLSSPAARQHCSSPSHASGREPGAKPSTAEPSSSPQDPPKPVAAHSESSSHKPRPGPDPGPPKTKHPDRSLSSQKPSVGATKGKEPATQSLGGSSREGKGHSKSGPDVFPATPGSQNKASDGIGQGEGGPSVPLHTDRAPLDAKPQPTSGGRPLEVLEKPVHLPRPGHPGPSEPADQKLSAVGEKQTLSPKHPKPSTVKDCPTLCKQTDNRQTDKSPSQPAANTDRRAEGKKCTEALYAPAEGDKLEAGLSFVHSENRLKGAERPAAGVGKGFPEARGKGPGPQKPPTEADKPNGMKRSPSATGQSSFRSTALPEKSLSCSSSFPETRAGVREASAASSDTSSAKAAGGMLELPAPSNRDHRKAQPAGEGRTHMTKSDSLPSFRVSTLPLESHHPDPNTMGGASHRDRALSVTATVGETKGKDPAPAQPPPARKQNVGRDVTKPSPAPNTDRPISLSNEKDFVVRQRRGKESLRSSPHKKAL
Description: as §1

SRPK1 = molecular target: T5, SRPK1 (Homo sapiens, UniProt Q96SB4);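 as to 0.001 uM KAM: median log10 fold change of treatment over DMSO control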;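 as to 0.01 uM KAM: median log10 fold change of treatment over DMSO control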;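 as to 0.1 uM KAM: median log10 fold change of treatment over DMSO control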;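 as to 1 uM KAM: median log10 fold change of treatment over DMSO control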;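 as to 10 uM KAM: median log10 fold change of treatment over DMSO control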
T5 construct: endogenous in cells; host or cells: K562
Description: as §1

ACTR2 = molecular target: T6, ACTR2 (Homo sapiens, UniProt P61160);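 as to 0.001 uM KAM: median log10 fold change of treatment over DMSO control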;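 as to 0.01 uM KAM: median log10 fold change of treatment over DMSO control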;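 as to 0.1 uM KAM: median log10 fold change of treatment over DMSO control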;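 as to 1 uM KAM: median log10 fold change of treatment over DMSO control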;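 as to 10 uM KAM: median log10 fold change of treatment over DMSO control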
T6 construct: endogenous in cells; host or cells: K562
Description: as §1

MAPK8 = molecular target: T7, MAPK8 (Homo sapiens, UniProt P45983)
T7 construct: endogenous in cells; host or cells: K562
T7 sequence (P45983 whole entry): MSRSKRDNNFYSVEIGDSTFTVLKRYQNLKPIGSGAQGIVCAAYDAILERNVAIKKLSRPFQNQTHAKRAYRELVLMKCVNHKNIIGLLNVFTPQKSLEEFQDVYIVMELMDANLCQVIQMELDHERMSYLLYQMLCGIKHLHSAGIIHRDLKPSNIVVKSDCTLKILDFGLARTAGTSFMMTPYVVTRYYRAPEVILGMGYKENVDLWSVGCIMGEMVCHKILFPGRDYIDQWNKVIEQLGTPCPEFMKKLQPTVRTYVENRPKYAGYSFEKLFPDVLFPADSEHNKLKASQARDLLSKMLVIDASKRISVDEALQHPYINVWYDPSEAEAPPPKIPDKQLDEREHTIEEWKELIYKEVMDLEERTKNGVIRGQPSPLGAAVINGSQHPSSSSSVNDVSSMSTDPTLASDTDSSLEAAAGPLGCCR
Description: as §1

MARK4 = molecular target: T8, MARK4 (Homo sapiens, UniProt Q96L34)
T8 construct: K562 cell pellets were thawed on ice and resuspended in cold Lysis buffer; endogenous in cells; host or cells: K562
T8 sequence (Q96L34 1-752): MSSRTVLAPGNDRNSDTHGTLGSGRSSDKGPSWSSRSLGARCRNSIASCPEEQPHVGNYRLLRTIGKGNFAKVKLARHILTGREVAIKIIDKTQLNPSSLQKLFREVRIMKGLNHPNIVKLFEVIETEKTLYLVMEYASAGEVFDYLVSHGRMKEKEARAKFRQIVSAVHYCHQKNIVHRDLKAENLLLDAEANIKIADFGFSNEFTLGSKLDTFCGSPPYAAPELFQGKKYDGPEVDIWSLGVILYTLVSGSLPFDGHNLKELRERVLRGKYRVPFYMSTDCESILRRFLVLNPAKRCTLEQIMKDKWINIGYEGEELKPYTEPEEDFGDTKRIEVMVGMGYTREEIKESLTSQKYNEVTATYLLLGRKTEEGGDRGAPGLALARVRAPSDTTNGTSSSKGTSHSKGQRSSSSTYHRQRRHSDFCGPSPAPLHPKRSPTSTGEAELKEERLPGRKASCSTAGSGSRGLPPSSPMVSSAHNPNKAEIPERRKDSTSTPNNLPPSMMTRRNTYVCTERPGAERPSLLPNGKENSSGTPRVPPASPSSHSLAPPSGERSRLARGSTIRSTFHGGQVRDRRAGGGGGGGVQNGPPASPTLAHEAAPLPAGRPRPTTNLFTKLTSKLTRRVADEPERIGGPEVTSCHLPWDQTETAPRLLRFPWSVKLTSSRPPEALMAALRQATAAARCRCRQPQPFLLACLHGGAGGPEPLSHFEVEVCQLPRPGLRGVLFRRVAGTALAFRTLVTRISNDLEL
Description: as §1

[1] = KAM 0.001-10 uM, read-out: RB50 (the source's name)
[2] = read-out: RB50 (the source's name)

## N#CCc1ccc(Nc2nc(NCCCN)cc(Nc3cc(C4CC4)[nH]n3)n2)cc1 [KAM]
HIPK3; [1]
  IC50: > 10 µM
HIPK3; relative to 0 uM KAM = 0
  0.001 uM KAM: -0.01362
  0.01 uM KAM: -0.04323
  0.1 uM KAM: -0.04392
  1 uM KAM: -0.1209
  10 uM KAM: -0.16
CAMKK2; 0.001 uM KAM
  median Log10 fold change: 0.007982
CAMKK2; 0.01 uM KAM
  median Log10 fold change: -0.006148
CAMKK2; 0.1 uM KAM
  median Log10 fold change: -0.132
CAMKK2; 1 uM KAM
  median Log10 fold change: -0.4329
CAMKK2; 10 uM KAM
  median Log10 fold change: -0.5591
CAMKK2; [2]
  IC50: 0.553 µM
HUNK; [1]
  IC50: > 10 µM
HUNK; relative to 0 uM KAM = 0
  0.001 uM KAM: 0.08544
  0.01 uM KAM: 0.04291
  0.1 uM KAM: 0.1545
  1 uM KAM: 0.0644
  10 uM KAM: 0.1031
MAST4; 0.001 uM KAM
  median Log10 fold change: -0.03696
MAST4; 0.01 uM KAM
  median Log10 fold change: 0.002822
MAST4; 0.1 uM KAM
  median Log10 fold change: -0.135
MAST4; 1 uM KAM
  median Log10 fold change: -0.3289
MAST4; 10 uM KAM
  median Log10 fold change: -0.3337
MAST4; [2]
  IC50: 1.26 µM
SRPK1; [1]
  IC50: > 10 µM
SRPK1; relative to 0 uM KAM = 0
  0.001 uM KAM: -0.01052
  0.01 uM KAM: -0.04054
  0.1 uM KAM: 0.02779
  1 uM KAM: -0.002878
  10 uM KAM: -0.01305
ACTR2; [1]
  IC50: > 10 µM
ACTR2; relative to 0 uM KAM = 0
  0.001 uM KAM: -0.002123
  0.01 uM KAM: 0.01622
  0.1 uM KAM: 0.01541
  1 uM KAM: 0.07708
  10 uM KAM: 0.05031
MAPK8; 0.001 uM KAM
  median Log10 fold change: -0.03388
MAPK8; 0.01 uM KAM
  median Log10 fold change: -0.03516
MAPK8; 0.1 uM KAM
  median Log10 fold change: -0.1302
MAPK8; 1 uM KAM
  median Log10 fold change: -0.2377
MAPK8; 10 uM KAM
  median Log10 fold change: -0.3812
MAPK8; [2]
  IC50: 2.35 µM
MARK4; 0.001 uM KAM
  median Log10 fold change: -0.09809
MARK4; 0.01 uM KAM
  median Log10 fold change: -0.06359
MARK4; 0.1 uM KAM
  median Log10 fold change: -0.2055
MARK4; 1 uM KAM
  median Log10 fold change: -0.3566
MARK4; 10 uM KAM
  median Log10 fold change: -0.4457
MARK4; [2]
  IC50: 0.604 µM
